Results published in a melting point compilation (Tetko et al.; mined from patent text by program, amines drawn as free bases though some values may be those of a salt).

Row | SMILES | melting point [°C]
1 | CCC(c1cc(C(=O)Nc2ccc(-c3ccc(C(=O)NS(C)(=O)=O)cc3C)cc2)ccc1OC)N(C)C (stereo unspecified) | 253 to 254
2 | O=C(O)CCc1cccc(-c2nc(=O)c3ccccc3s2)c1 | 180
3 | Oc1c(C(=Nc2ccccc2)Nc2ccccc2)sc2ccccc12 | 152 to 153
4 | COc1ccc2c(c1)Sc1ccc(F)cc1C(N1CCN(CCN3CCOC3=O)CC1)C2 (stereo unspecified) | 177 to 179
5 | NC(=O)C1CCc2sc3ccccc3c2C1 (stereo unspecified) | 153 to 155
6 | C=CCOc1cccc2oc(C=CC(=O)OCC)c(C)c12 | 79 to 80
7 | CCCCC(=O)N(Cc1ccc(OC(F)(F)F)cc1)c1cc(Cl)cc(-c2nnn[nH]2)c1 | 177 to 180
8 | C=CC(=O)N1CC(O)CC1C(=O)OC (stereo unspecified) | 77 to 78
9 | Cn1cc(C2=C(c3cn(CCCNCCN)c4ccccc34)C(=O)NC2=O)c2ccccc21 | 190 to 193
10 | CCCC(=O)c1c(C)cc(C)cc1O | 48 to 52
11 | CCSc1ccc2cccc(CCNC(C)=O)c2c1 | 65 to 66
12 | CCCc1c(OCc2ccc(C(=O)NC(C)CCCc3cccnc3)cc2)ccc(C(C)=O)c1O (stereo unspecified) | 117 to 120
13 | Cc1ccc(S(=O)(=O)N2[C@@H](c3nn[nH]n3)CC[C@H]2c2ccc(F)cc2)cc1 (racemic) | 150
14 | CC(C)COC1=C(Cc2ccc(Cl)cc2)C(=O)CC(C)(C)C1 | 60 to 61
15 | N#Cc1ccc(N2C(=O)N(CC#CCO)C(CF)(CF)C2=O)cc1C(F)(F)F | 131 to 132
16 | CCOc1ccc(-c2nnc(Nc3ccc(Br)c(Cl)c3)s2)cc1 | 225 to 226
17 | Cc1ccc(N=C2SCS2)cc1 | 54.5 to 55
18 | CCCCCC1CCc2c(c(F)c(F)c3oc(C)cc23)O1 (stereo unspecified) | 61
19 | COC(=O)C(=C(C)C)N1C(=O)[C@H](N2C(=O)c3ccccc3C2=O)[C@H]1Cl | 122 to 125
20 | Clc1ccc(OCSc2ncc(Cl)cn2)cc1 | 120
21 | CCCCOc1cc2cc(CO)c(CO)c(-c3ccnc(NN)c3)c2cc1OC | 93 to 97
22 | CSC[C@H](N)C(=O)NC(C)=O | 120 to 123
23 | NS(=O)(=O)c1ccc(N2CCN(Cc3cn4ccccc4n3)CC2)cc1 | 238 to 242
24 | CCN1CCc2nc(N3CCNCC3)ncc2C1=O | 205 to 210
25 | CCCc1c(C(=O)c2ccc(OS(=O)(=O)c3ccc(C)cc3)cc2)c2ccccn2c1C(C)=O | 125 to 126
26 | CC(C)(C)c1ccn(-c2ccc(C(=O)c3cccc4c3Nc3ncccc3CN4)c(C(F)(F)F)c2)n1 | 136 to 140

Row | SMILES | melting point [°C]
27 | COc1ccc(Cl)c(Oc2c(C)nc(N3CCOCC3)nc2Cl)c1 | 134
28 | COc1ccc(CN2C(=O)C(C)(c3ccccc3Cl)c3cc(OC)ccc32)c(OC)c1 (stereo unspecified) | 133
29 | Cc1c(N)c([N+](=O)[O-])cc2c(=O)c(C(=O)O)cn(-c3cc(N)c(F)cc3F)c12 | > 280
30 | CCOP(=O)(CCN1CC(O)CNc2c1c(=O)c2=O)OCC (stereo unspecified) | 169 to 171
31 | COc1cc2c(c(N3CCN(C)CC3)c1)OC(C(=O)Nc1ccc(N3CCN(C)CC3)cc1)CC2 (stereo unspecified) | 180 to 190
32 | CC(=O)N(O)Cc1ccc2c(c1)Cc1ccccc1-2 | 182 to 183
33 | C[N+]1([O-])C(=O)C(F)N=C(c2ccccc2)c2cc(Cl)ccc21 (stereo unspecified) | 167 to 169
34 | NC(=O)CN1C(=O)[C@@H](NC(=O)c2ccc(Cl)cc2)[C@H](c2ccccc2)Sc2ccccc21 (relative stereo) | 272 to 275
35 | CC(=O)C1C(=O)N(C(=O)NC(=O)c2ccccc2)c2ccccc21 (stereo unspecified) | 198
36 | COc1ccc2cc(N3CCN(C4CCC(c5c[nH]c6ccc(F)cc56)CC4)CC3)ccc2c1 (stereo unspecified) | 200 to 203
37 | C=CCC1=C(C)C(OC(=O)C2C(C=CC(C)=O)C2(C)C)CC1=C (stereo unspecified) | < 50
38 | CCCn1c(C(=O)OC)cc(=O)c2oc3ccc(Cl)cc3c(=O)c21 | 240 to 244
39 | O=C(COc1cc(-c2ccc([N+](=O)[O-])cc2)nc2cccc(C(F)(F)F)c12)N1CCOCC1 | 222
40 | COC(=O)c1ccc(C(=O)Nc2ccccc2)cc1 | 189 to 190
41 | CCOC(=O)c1cn(NCC=O)c2cc(-n3cccc3)c(F)cc2c1=O | 194 to 198
42 | CCCCC[C@@H](CNC(=O)Nc1c(OCC)ccc2c1CCCC2)c1cccc2c1OCO2 | 81.5 to 82.5
43 | COc1ccc(/C=C(\C#N)c2cccc(Cl)c2)cc1OC1CCCC1 | 98 to 100
44 | CC1=C(C(=O)OCCN(C)C)C(c2cccc([N+](=O)[O-])c2)C(C(=O)OCC2CC2)=C(C)N1 (stereo unspecified) | 125 to 126
45 | CCOc1cc(C#N)ccc1C(=O)Nc1cc(Cl)c(Cl)cc1N | 195 to 198
46 | Nc1ccnn1-c1c(Cl)cc(C(F)(F)F)c(Cl)c1Cl | 109 to 114
47 | COc1ccc(NC(N)=S)c(N2CCOCC2)c1 | 175
48 | Cc1cc(C)cc(-c2cc3cnc(N)nc3nc2N)c1 | 298 to 302
49 | Cc1cc(=O)c(O)c(C)o1 | 161 to 163
50 | CCOC(=O)N1CCC2=C(C1)SCC2(NC(=O)CN)C(=O)c1ccccc1Cl (stereo unspecified) | 95 to 97
51 | CCC(=O)CC(=O)C1CCC2C3CCC4CC(O)CCC4(C)C3C(=O)CC12C (stereo unspecified) | 128 to 130
52 | Clc1cccc(-c2nc3ccccc3n2-c2ccccc2)c1 | 107 to 109

Row | SMILES | melting point [°C]
53 | O=C(CCSC(=S)Nc1ccc(Cl)cn1)c1ccccc1 | 159
54 | COc1cc(NC(=O)Nc2c(-c3ccccc3Cl)c3cc(C)c(C)cc3n(C)c2=O)cc(OC)c1OC(C)=O | 233 to 234
55 | CS(=O)(=O)c1ccc(Cl)cc1Cl | 71
56 | COCCCCCCCCCCCCCCSCCC(=O)OC | 31 to 32
57 | COc1ccc(-c2nc(Sc3ccc(Cl)cc3)n(C3CCCCO3)c2-c2ccc(OC)cc2)cc1 (stereo unspecified) | 202 to 204
58 | CCN(CC)C(=O)c1cc(-c2ccc(Cl)cc2)nc2ccc(Cl)cc12 | 130
59 | CCCCCC(Oc1ccc(C2=CCCCC2)cc1)C(=O)O (stereo unspecified) | 78 to 80
60 | Cn1cc(C(=O)Nc2nc(-c3ccco3)c(C(=O)c3ccccc3)s2)ccc1=O | 220 to 225
61 | Cc1ccc(CN2CCN(c3cc(-c4ccccc4)ccn3)CC2)cc1 | 103
62 | CCN(c1ccc(C(=O)O)cc1)c1cc2c3c(c1)CCCC3CCC2 | 284 to 285
63 | O=C(Nc1ccc(Cl)cn1)c1cc(Cl)ccc1NCC1CCN(C2CCCC2)CC1 | 170 to 171
64 | CCNC(=O)OCCCCCCCCC1CC2=C(C1)C(=O)C(OC)=C(OC)C2=O | 85 to 86
65 | CCSc1nc(C)[nH]c1CO | 153
66 | NC(=O)C1CN1Cc1ccccc1 (stereo unspecified) | 114 to 116
67 | O=C(Nc1cc2cn[nH]c2cc1Cl)c1ccccc1NCc1ccncc1 | 223
68 | Cc1ccc(OC(=O)Cl)cc1 | 60 to 61.5
69 | CNS(=O)(=O)c1cc(C(=O)NNC(=O)c2occ(-c3ccccc3)c2-c2ccccc2)ccc1OC | 239 to 241
70 | CCOC(=O)C(=CNc1csnn1)C(=O)c1cc(F)c(F)cc1F | 104 to 106
71 | CCCCCNS(=O)(=O)NC(=O)OCc1ccc(OCCOC)cc1Oc1ncc(C(F)(F)F)cc1Cl | 153 to 155
72 | CCOC(=O)Cc1nn(Cc2nc(-c3ccccc3C(F)(F)F)no2)c(=O)c2ccccc12 | 111 to 115
73 | COc1ccc(-c2cc3cc(F)c(F)cc3[nH]2)cc1N | 210 to 211
74 | O=Cc1cncc2ncc(-c3ccccc3)cc12 | 148
75 | CC(C)(NC(=O)CCn1cnc(C=O)c1)c1ccc(Cl)c(Cl)c1 | 161 to 163
76 | Cc1nnc2n1-c1sc(Cl)cc1C(c1ccccc1Cl)=NC2 | 205 to 206
77 | O=C(C(CCCl)c1ccccc1)N1CCCCCC1 (stereo unspecified) | 50 to 53
78 | CC(=NO)C(C)(C)NCCN(C)NC(C)(C)C(C)=NO | 130 to 131

Row | SMILES | melting point [°C]
79 | COC(=O)C1(NC(=O)Cc2c(C)ccc(-c3ccc(Cl)cc3)c2C)CCC(F)(F)CC1 | 179 to 183
80 | CN(CCF)c1nc2cc(NC(=O)c3c(C(=O)N4CCC4)cnn3C)ccn2n1 | 236 to 237
81 | Cn1nnc(-c2ccc3c(c2)c(C2=CCN(CCc4nnn[nH]4)CC2)cn3-c2ccc(F)cc2)n1 | 131 to 132
82 | O=S(=O)(c1ccccc1)c1ncc(Cl)cn1 | 103
83 | CNC(=O)C1=CC(C)(C)Oc2ccc(C(F)(F)F)cc21 | 146 to 150
84 | O=C(O)c1ccc(-c2nc(-c3ccc(Cl)s3)cs2)cc1 | 283 to 284
85 | C=CCOc1ccc2c(c1)C(=O)NC(C)(C)O2 | 137 to 138
86 | CCOC(=O)C(C)Cc1ccnc(-c2nc(=O)c3ccccc3s2)c1 (stereo unspecified) | 120 to 121
87 | FC(F)(F)c1ccc(C2=NN(C(=S)Nc3ccc(Cl)cc3)CC2c2ccccc2)cc1 (stereo unspecified) | 208 to 210
88 | COCOc1ccc(C=CC(=O)c2c(OC)cc(OC)c(CC=C(C)C)c2O)cc1OC | 126 to 127
89 | N#Cc1c(OCCN2CCOCC2)cccc1Oc1ccc(-c2cn(C3CCOCC3)c3ncnc(N)c23)cc1 | 110
90 | CCOC(=O)C(=NOC)C(C)=NNC(=O)OC(C)(C)C | 144 to 145
91 | COC(=O)c1ccc(SCc2cccc(Cl)c2)cn1 | 75 to 77
92 | COc1c(C)cnc(CSc2nc3ncc(O)cc3[nH]2)c1C | 178 to 180
93 | Cc1ccc(C(=O)c2cc(-c3ccccc3)c(N3CCOCC3)s2)cc1 | 198
94 | Cn1ccc(-c2ccc(C(=O)N3Cc4cccn4Cc4ccccc43)c(Cl)c2)n1 | 148 to 150
95 | CC(C)COc1c(-c2ccc(S(N)(=O)=O)c(F)c2)cnn(CC(F)(F)F)c1=O | 163 to 164
96 | CCNc1cc(NS(=O)(=O)c2ccc(N)cc2)nc(NC(C)C)n1 | 266 to 267
97 | O=C(Nc1c(Cl)cccc1Cl)N(Cc1ccccc1)CC1(c2ccccc2)CCCC1 | 125 to 127
98 | CCCCCCCCCCCCCCN(O)C(=O)N(C)C | 64 to 66
99 | CC(Oc1ccc(Oc2ccc(C(F)(F)F)cc2)cc1)C(=O)OCC#N (stereo unspecified) | 53 to 56
100 | CCOC(=O)c1nccn1C1Cc2ccc(Cl)c(Cl)c2C1=O (stereo unspecified) | 90
101 | CC(=O)N1CCC(c2nn(-c3ccccc3)c3cc(F)ccc23)CC1 | 126 to 128
